{"source": "paper doi:10.1101/2021.09.30.462449v1", "about": "(biorxiv, 2021)", "key": {"STK33": {"biological_target": "STK33 (Homo sapiens, UniProt Q9BYT3)", "test": "biochemical", "details": "read-out: % inhibition mean (Lanthascreen)"}, "MLCK (MLCK2)": {"biological_target": "MLCK (MLCK2) (Homo sapiens, UniProt Q32MK0)", "sequence (Q32MK0 whole entry)": "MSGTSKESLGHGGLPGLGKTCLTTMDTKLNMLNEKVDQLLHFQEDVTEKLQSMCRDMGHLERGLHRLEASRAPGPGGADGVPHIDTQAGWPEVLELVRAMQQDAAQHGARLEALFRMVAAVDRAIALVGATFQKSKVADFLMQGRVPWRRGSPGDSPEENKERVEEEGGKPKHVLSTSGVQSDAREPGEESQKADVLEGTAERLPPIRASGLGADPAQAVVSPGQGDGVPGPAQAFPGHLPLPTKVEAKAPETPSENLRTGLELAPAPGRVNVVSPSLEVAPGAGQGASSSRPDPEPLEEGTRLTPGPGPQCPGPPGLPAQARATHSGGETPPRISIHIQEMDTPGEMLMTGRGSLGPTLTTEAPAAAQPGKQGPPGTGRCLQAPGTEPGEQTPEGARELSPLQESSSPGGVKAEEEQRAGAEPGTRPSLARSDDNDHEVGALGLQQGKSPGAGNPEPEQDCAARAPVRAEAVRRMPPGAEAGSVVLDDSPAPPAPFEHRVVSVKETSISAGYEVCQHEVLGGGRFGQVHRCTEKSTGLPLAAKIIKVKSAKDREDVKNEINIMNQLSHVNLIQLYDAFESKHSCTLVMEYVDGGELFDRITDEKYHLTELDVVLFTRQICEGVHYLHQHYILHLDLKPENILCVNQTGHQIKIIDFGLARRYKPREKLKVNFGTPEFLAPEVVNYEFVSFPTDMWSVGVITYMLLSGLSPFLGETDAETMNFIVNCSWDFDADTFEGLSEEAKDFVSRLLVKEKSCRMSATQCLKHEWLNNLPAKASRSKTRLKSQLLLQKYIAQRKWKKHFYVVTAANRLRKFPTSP", "test": "biochemical", "details": "read-out: % inhibition mean (Lanthascreen)"}, "PIK3C3 (hVPS34)": {"biological_target": "PIK3C3 (hVPS34) (Homo sapiens, UniProt Q8NEB9)", "test": "biochemical", "details": "read-out: % inhibition mean (Adapta)"}, "DAPK1": {"biological_target": "DAPK1 (Homo sapiens, UniProt P53355)", "test": "biochemical", "details": "read-out: % inhibition mean (Adapta)"}, "PIP5K1B": {"biological_target": "PIP5K1B (Homo sapiens, UniProt O14986)", "sequence (O14986 whole entry)": "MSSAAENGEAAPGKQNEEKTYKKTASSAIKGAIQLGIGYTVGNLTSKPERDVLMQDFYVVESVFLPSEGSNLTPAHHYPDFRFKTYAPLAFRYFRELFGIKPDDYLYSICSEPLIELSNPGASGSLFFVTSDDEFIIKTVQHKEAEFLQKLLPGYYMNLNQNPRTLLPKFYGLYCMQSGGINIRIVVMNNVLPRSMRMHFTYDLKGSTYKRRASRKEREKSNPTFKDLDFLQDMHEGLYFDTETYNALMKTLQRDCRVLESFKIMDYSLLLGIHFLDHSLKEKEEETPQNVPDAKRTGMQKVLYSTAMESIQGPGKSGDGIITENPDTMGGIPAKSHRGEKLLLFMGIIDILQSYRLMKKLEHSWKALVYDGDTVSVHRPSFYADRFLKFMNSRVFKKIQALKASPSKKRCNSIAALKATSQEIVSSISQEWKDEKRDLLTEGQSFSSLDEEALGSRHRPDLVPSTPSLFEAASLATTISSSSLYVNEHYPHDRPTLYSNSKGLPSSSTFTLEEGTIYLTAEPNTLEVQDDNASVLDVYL", "test": "biochemical", "details": "read-out: % inhibition mean (Adapta)"}, "CDK4/cyclin D1": {"biological_target": "CDK4/cyclin D1 (Homo sapiens, UniProt P11802)", "test": "biochemical", "details": "read-out: % inhibition mean (Adapta)"}, "SPHK2": {"biological_target": "SPHK2 (Homo sapiens, UniProt Q9NRA0)", "sequence (Q9NRA0 whole entry)": "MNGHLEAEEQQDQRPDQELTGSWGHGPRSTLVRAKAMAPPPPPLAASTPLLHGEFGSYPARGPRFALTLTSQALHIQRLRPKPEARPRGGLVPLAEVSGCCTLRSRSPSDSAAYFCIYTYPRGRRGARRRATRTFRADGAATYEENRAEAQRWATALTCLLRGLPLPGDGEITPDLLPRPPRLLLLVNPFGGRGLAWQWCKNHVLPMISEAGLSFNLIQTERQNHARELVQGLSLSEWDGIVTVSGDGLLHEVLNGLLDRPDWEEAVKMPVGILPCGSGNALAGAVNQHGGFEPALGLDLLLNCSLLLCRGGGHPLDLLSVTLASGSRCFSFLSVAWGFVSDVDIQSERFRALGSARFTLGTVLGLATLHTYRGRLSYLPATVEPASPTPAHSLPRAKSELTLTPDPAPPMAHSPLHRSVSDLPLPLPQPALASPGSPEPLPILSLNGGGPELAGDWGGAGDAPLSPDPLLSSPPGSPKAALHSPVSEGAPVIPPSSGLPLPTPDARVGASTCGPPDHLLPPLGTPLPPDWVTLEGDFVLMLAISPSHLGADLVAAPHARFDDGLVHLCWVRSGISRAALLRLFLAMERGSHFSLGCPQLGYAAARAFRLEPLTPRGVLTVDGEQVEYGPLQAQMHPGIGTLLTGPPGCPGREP", "test": "biochemical", "details": "read-out: % inhibition mean (Adapta)"}, "PIK3CG (p110 gamma)": {"biological_target": "PIK3CG (p110 gamma) (Homo sapiens, UniProt P48736)", "test": "biochemical", "details": "read-out: % inhibition mean (Adapta)"}, "PI4K2A (PI4K2 alpha)": {"biological_target": "PI4K2A (PI4K2 alpha) (Homo sapiens, UniProt Q9BTU6)", "test": "biochemical", "details": "read-out: % inhibition mean (Adapta)"}, "LRRK2 G2019S FL": {"biological_target": "LRRK2 G2019S FL (Homo sapiens, UniProt Q5S007, G2019S)", "test": "biochemical", "details": "read-out: % inhibition mean (Adapta)"}, "[1]": {"biological_target": "PIK3CB/PIK3R1 (p110 beta/p85 alpha) (Homo sapiens, UniProt P42338)", "test": "biochemical", "details": "read-out: % inhibition mean (Adapta)"}, "PIP5K1A": {"biological_target": "PIP5K1A (Homo sapiens, UniProt Q99755)", "test": "biochemical", "details": "read-out: % inhibition mean (Adapta)"}, "CHUK (IKK alpha)": {"biological_target": "CHUK (IKK alpha) (Homo sapiens, UniProt O15111)", "test": "biochemical", "details": "read-out: % inhibition mean (Adapta)"}, "LRRK2 R1441C": {"biological_target": "LRRK2 R1441C (Homo sapiens, UniProt Q5S007, R1441C)", "test": "biochemical", "details": "read-out: % inhibition mean (Adapta)"}, "[2]": {"biological_target": "PIK3CB/PIK3R2 (p110 beta/p85 beta) (Homo sapiens, UniProt P42338)", "test": "biochemical", "details": "read-out: % inhibition mean (Adapta)"}, "LRRK2": {"biological_target": "LRRK2 (Homo sapiens, UniProt Q5S007)", "test": "biochemical", "details": "read-out: % inhibition mean (Adapta)"}, "[3]": {"biological_target": "PIK3CA/PIK3R1 (p110 alpha/p85 alpha) (Homo sapiens, UniProt P42336)", "test": "biochemical", "details": "read-out: % inhibition mean (Adapta)"}, "CDK9/cyclin T1": {"biological_target": "CDK9/cyclin T1 (Homo sapiens, UniProt P50750)", "sequence (P50750 whole entry)": "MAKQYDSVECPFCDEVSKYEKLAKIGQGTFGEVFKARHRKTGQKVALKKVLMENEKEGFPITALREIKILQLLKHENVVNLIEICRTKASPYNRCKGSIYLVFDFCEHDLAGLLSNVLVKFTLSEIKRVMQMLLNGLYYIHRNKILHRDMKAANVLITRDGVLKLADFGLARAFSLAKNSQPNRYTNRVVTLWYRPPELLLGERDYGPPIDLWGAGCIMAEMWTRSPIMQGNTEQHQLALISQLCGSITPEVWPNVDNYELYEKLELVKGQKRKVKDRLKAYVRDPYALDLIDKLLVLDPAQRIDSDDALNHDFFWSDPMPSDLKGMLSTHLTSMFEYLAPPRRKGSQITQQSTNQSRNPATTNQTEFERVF", "sequence (O60563 whole entry partner)": "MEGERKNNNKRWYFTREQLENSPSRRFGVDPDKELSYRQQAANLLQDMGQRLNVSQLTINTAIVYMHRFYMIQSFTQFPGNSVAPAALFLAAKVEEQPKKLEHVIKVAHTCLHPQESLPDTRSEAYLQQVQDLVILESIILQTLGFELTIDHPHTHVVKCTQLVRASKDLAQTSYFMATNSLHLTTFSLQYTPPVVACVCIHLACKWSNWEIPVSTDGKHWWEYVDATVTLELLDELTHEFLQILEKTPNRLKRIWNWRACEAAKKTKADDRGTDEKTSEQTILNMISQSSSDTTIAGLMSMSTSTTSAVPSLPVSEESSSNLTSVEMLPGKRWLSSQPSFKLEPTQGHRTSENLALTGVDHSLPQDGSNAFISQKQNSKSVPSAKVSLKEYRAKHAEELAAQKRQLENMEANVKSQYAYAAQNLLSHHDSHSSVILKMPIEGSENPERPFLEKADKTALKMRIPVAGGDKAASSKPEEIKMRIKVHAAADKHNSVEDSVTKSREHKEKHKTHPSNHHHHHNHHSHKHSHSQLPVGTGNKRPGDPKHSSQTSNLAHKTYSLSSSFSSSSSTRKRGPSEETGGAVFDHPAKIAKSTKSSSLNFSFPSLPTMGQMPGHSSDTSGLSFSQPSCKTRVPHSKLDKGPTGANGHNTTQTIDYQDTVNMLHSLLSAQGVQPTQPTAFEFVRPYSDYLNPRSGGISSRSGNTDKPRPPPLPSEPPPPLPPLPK", "test": "biochemical", "details": "read-out: % inhibition mean (Adapta)"}, "LRRK2 I2020T": {"biological_target": "LRRK2 I2020T (Homo sapiens, UniProt Q5S007, I2020T)", "test": "biochemical", "details": "read-out: % inhibition mean (Adapta)"}, "CDK6/cyclin D1": {"biological_target": "CDK6/cyclin D1 (Homo sapiens, UniProt Q00534)", "sequence (Q00534 whole entry)": "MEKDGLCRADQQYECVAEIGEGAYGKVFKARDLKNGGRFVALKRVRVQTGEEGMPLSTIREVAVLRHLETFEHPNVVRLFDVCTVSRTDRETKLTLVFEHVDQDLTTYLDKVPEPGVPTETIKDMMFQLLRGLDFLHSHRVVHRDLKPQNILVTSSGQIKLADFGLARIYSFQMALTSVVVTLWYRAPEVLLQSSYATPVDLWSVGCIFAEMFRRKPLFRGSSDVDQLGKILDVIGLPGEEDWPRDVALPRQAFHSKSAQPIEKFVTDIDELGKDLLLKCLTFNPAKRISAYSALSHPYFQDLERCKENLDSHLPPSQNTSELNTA", "sequence (P24385 whole entry partner)": "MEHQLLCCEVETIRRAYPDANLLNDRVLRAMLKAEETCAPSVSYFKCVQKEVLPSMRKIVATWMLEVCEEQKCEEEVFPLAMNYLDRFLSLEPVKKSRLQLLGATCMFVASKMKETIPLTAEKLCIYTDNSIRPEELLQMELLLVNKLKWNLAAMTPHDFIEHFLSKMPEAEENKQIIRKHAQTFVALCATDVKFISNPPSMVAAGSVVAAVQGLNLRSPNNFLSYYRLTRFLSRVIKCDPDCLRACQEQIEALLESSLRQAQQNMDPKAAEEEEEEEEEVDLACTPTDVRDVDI", "test": "biochemical", "details": "read-out: % inhibition mean (Adapta)"}, "PIP4K2A": {"biological_target": "PIP4K2A (Homo sapiens, UniProt P48426)", "test": "biochemical", "details": "read-out: % inhibition mean (Adapta)"}, "GSG2 (Haspin)": {"biological_target": "GSG2 (Haspin) (Homo sapiens, UniProt Q8TF76)", "test": "biochemical", "details": "read-out: % inhibition mean (Adapta)"}, "LRRK2 G2019S": {"biological_target": "LRRK2 G2019S (Homo sapiens, UniProt Q5S007, G2019S)", "test": "biochemical", "details": "read-out: % inhibition mean (Adapta)"}, "PIK3C2A (PI3K-C2 alpha)": {"biological_target": "PIK3C2A (PI3K-C2 alpha) (Homo sapiens, UniProt O00443)", "test": "biochemical", "details": "read-out: % inhibition mean (Adapta)"}, "PIP5K1C": {"biological_target": "PIP5K1C (Homo sapiens, UniProt O60331)", "sequence (O60331 whole entry)": "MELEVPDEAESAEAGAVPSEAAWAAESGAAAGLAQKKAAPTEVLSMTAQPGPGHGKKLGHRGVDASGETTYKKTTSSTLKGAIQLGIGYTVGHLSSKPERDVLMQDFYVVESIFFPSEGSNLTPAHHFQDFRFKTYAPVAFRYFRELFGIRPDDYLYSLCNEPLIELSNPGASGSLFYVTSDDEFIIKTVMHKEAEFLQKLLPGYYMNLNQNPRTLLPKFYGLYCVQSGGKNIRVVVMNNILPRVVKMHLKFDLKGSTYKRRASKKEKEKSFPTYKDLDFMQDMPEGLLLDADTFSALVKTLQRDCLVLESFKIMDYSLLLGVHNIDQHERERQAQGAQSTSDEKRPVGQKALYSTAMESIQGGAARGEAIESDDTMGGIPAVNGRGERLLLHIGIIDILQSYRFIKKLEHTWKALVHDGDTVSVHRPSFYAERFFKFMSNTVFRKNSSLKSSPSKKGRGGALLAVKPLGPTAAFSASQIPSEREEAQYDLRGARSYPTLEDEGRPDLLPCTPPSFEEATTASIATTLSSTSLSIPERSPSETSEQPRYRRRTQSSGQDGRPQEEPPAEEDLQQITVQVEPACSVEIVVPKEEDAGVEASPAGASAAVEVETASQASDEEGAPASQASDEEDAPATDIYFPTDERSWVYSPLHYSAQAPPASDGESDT", "test": "biochemical", "details": "read-out: % inhibition mean (Adapta)"}, "CAMK1 (CaMK1)": {"biological_target": "CAMK1 (CaMK1) (Homo sapiens, UniProt Q14012)", "test": "Adapta universal kinase assay", "format": "biochemical"}, "PDK1": {"biological_target": "PDK1 (Homo sapiens, UniProt O15530)", "sequence (O15530 whole entry)": "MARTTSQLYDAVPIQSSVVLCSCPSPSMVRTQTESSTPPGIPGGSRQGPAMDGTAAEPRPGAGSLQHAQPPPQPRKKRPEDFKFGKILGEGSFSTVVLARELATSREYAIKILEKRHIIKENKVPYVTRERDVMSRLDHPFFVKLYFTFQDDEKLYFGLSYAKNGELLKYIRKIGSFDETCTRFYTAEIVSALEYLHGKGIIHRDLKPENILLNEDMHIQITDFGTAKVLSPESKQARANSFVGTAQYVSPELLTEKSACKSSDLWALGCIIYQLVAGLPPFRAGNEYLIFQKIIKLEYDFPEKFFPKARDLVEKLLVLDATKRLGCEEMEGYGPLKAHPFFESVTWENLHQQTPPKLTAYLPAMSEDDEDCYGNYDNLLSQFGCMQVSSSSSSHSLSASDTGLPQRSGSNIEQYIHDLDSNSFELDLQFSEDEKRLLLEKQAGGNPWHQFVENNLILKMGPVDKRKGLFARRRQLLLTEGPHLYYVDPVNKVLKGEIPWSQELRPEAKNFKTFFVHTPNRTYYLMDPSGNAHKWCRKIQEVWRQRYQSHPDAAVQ", "test": "biochemical"}, "MELK": {"biological_target": "MELK (Homo sapiens, UniProt Q14680)", "test": "ThermoFisher kinase profiling", "format": "biochemical", "details": "read-out: % inhibition at 1 μM"}}, "note": "Like-named read-outs stand apart in the source and are kept apart here."}
{"smiles": "COc1ccc2nc3cc(Cl)ccc3c(Nc3cc(CN4CCCC4)c(O)c(CN4CCCC4)c3)c2n1", "note": "[Pyronaridine, 4-[(7-Chloro-2-methoxybenzo[b][1,5]naphthyridin-10-yl)amino]-2,6-bis(1-pyrrolidinylmethyl)phenol phosphate (1:4)]", "values": [{"measurement": "inhibition at 1 µM", "setting": "STK33", "result": 11, "unit": "%"}, {"measurement": "inhibition at 1 µM", "setting": "MLCK (MLCK2)", "result": -6, "unit": "%"}, {"measurement": "inhibition at 1 µM", "setting": "PIK3C3 (hVPS34)", "result": -4, "unit": "%"}, {"measurement": "inhibition at 1 µM", "setting": "DAPK1", "result": 11, "unit": "%"}, {"measurement": "inhibition at 1 µM", "setting": "PIP5K1B", "result": -11, "unit": "%"}, {"measurement": "inhibition at 1 µM", "setting": "CDK4/cyclin D1", "result": 1, "unit": "%"}, {"measurement": "inhibition at 1 µM", "setting": "SPHK2", "result": -5, "unit": "%"}, {"measurement": "inhibition at 1 µM", "setting": "PIK3CG (p110 gamma)", "result": 2, "unit": "%"}, {"measurement": "inhibition at 1 µM", "setting": "PI4K2A (PI4K2 alpha)", "result": 4, "unit": "%"}, {"measurement": "inhibition at 1 µM", "setting": "LRRK2 G2019S FL", "result": -10, "unit": "%"}, {"measurement": "inhibition at 1 µM", "setting": "[1]", "result": -11, "unit": "%"}, {"measurement": "inhibition at 1 µM", "setting": "PIP5K1A", "result": -6, "unit": "%"}, {"measurement": "inhibition at 1 µM", "setting": "CHUK (IKK alpha)", "result": 0, "unit": "%"}, {"measurement": "inhibition at 1 µM", "setting": "LRRK2 R1441C", "result": -7, "unit": "%"}, {"measurement": "inhibition at 1 µM", "setting": "[2]", "result": -2, "unit": "%"}, {"measurement": "inhibition at 1 µM", "setting": "LRRK2", "result": -2, "unit": "%"}, {"measurement": "inhibition at 1 µM", "setting": "[3]", "result": 7, "unit": "%"}, {"measurement": "inhibition at 1 µM", "setting": "CDK9/cyclin T1", "result": 5, "unit": "%"}, {"measurement": "inhibition at 1 µM", "setting": "LRRK2 I2020T", "result": -15, "unit": "%"}, {"measurement": "inhibition at 1 µM", "setting": "CDK6/cyclin D1", "result": 1, "unit": "%"}, {"measurement": "inhibition at 1 µM", "setting": "PIP4K2A", "result": 15, "unit": "%"}, {"measurement": "inhibition at 1 µM", "setting": "GSG2 (Haspin)", "result": 9, "unit": "%"}, {"measurement": "inhibition at 1 µM", "setting": "LRRK2 G2019S", "result": 4, "unit": "%"}, {"measurement": "inhibition at 1 µM", "setting": "PIK3C2A (PI3K-C2 alpha)", "result": -1, "unit": "%"}, {"measurement": "inhibition at 1 µM", "setting": "PIP5K1C", "result": -3, "unit": "%"}, {"measurement": "IC50", "setting": "CAMK1 (CaMK1)", "result": 2.4, "unit": "µM"}, {"measurement": "inhibition at 1 µM", "setting": "PDK1; read-out: % inhibition mean (Z'Lyte)", "result": 0, "unit": "%"}, {"measurement": "inhibition at 1 µM", "setting": "PDK1; read-out: % inhibition mean (Z'Lyte), direct format", "result": 7, "unit": "%"}, {"measurement": "inhibition at 1 µM", "setting": "MELK", "result": 31, "unit": "%"}]}
